Reference: US9238020B2, “Compositions comprising enzyme-cleavable phenol-modified tapentadol prodrug” (priority 2010, dated 2016)

Experiments:
[1] = Pharmacokinetics of tapentadol release following PO administration of prodrugs or tapentadol to rats; format: in vivo, rat
Method: Saline solutions of Compound TP-1 (which can be prepared as described in the examples herein) were dosed as indicated in Table 1 via oral gavage into 4 jugular vein-cannulated male Sprague Dawley rats that had been fasted for 16-18 hr prior to oral dosing. At specified time points, blood samples were drawn, harvested for plasma via centrifugation at 5,400 rpm at 4° C. for 5 min, and 100 microliters (μl) plasma transferred from each sample into a fresh tube containing 2 μl of 50% formic acid. The tubes were vortexed for 5-10 seconds, immediately placed in dry ice and then stored in a −80° C. freezer until analysis by HPLC/MS.
Saline solutions of Compounds TP-1, TP-3, TP-4, (which can be prepared as described in the examples herein) or tapentadol were dosed in approximately equimole amounts as indicated in Table 6. Dose administration, sampling and analysis procedures were as described in Example 11.
Dosing, sampling and analysis procedures were as described in Example 11.

[2] = Pharmacokinetics following PO administration to dogs; format: in vivo, dog; conditions: approximately equimole amounts
Method: Purebred male young adult/adult beagles were fasted overnight. Compound TP-1 (which can be prepared as described in the examples herein) or tapentadol (which can be prepared as described in PCT patent application No. WO28012046A1) were administered in approximately equimole amounts in water via oral gavage followed immediately by flushing the gavage tube with 5 mL water prior to withdrawal. Blood was collected from each animal predose and following dose administration at 0.25, 0.5, 1, 2, 3, 4, 6, 8, 10, 12 and 24 hours postdose. Blood samples were centrifuged and 0.8 mL plasma transferred to fresh tubes containing 8 μl formic acid; samples were vortexed, then immediately placed in dry ice and stored in a −80° C. freezer until analysis by HPLC/MS.
Table 5 and FIG. 6 provide tapentadol exposure results for dogs administered Compound TP-1 or tapentadol. Results in Table 5 are reported for each group of four dogs as described in Example 11.

[3] = In vitro stability of Compound TP-1 to household chemicals and enzyme preparations; format: physicochemical
Method: Compound TP-1 (which can be prepared as described in the examples herein) was exposed at room temperature (RT) or 80° C. for either 1 or 24 hours (hr) to the following household chemicals: vodka (40% alcohol), baking soda (saturated sodium bicarbonate solution, pH 9), WINDEX® with Ammonia-D (pH 11) and vinegar (5% acetic acid). Compound TP-1 was also exposed to the following enzyme-containing compositions at RT for 1 or 24 hr: GNC® Super Digestive (2 capsules of GNC Super Digestive Enzymes dissolved in 5 mL of water), tenderizer (Adolf's meat tenderizer, primarily papain, dissolved in water to a concentration of 0.123 g/mL to approximate the concentration of a marinade given on the bottle label), and subtilisn (8 tablets of ULTRAZYME® contact lens cleaner (Advanced Medical Optics, Milpitas, Calif.) dissolved in 4 mL water). Samples were incubated as described and aliquots removed at 1 hr and 24 hr and stabilized by adding each to a solution of 50% or 100% of 85% phosphoric acid solution to achieve a final pH of less than or equal to pH 4. The stabilized aliquots were then diluted 4- to 6-fold with water, vortex-mixed and applied to HPLC.
The solid black bars indicate the percentage of Compound TP-1 remaining after exposure, and the lightly shaded bars with a black outline indicate the percentage conversion of Compound TP-1 to tapentadol.

[4] = target: T1, human μ-opioid receptor (Homo sapiens, UniProt P35372); experiment: In vitro human μ-opioid receptor agonist cellular functional assay (cAMP, CHO cells); format: cell-based; design: expressed in transfected cells; conditions: CHO cells expressing human μ-opioid receptor, 37° C., 10 min
Method: The general procedure follows the protocol described by J.-B. Wang, et al, ibid. More specifically, the assay included as appropriate, Compound TP-1 or tapentadol and recombinant Chinese hamster ovary (CHO) cells expressing the human μ-opioid receptor on their cell surfaces. The control reaction included 1 μM DAMGO. The reaction mixtures were incubated at 37° C. for 10 min, and the reaction product was cyclic AMP (cAMP). The samples were submitted to homogeneous time resolved fluorescence (HTRF®). EC50 values (concentration producing a half-maximal specific response) were determined by non-linear regression fit using Hill plot software.

[5] = target: T1, human μ-opioid receptor; experiment: In vitro human μ-opioid receptor binding assay ([3H]DAMGO, recombinant HEK-293 cells); design: expressed in transfected cells; host or cells: HEK-293; conditions: relative to tapentadol
Method: The general procedure follows the protocol described by J.-B. Wang, et al, 1994, FEBS Lett. 338, 217-222. More specifically, the assays included tapentadol or Compound TP-1 (which can be prepared as described in the examples herein) as well as recombinant HEK-293 cells expressing the human μ-opioid receptor on their cell surfaces, reference compound [d-Ala^2,N-Me-Phe^4,Gly^5−ol]-enkephalin (DAMGO), radioligand [^3H]DAMGO (0.5 nM) and non-specific ligand naloxone (10 uM). The reaction mixtures were incubated at 22° C. for 2 hr. The samples were then submitted to scintillation counting.
In these assays, the specific binding of a test compound to the receptor is defined as the difference between the total binding and the non-specific binding determined in the presence of an excess of unlabelled ligand. Results are expressed as a percent of control of specific binding and as a percent inhibition of control specific binding obtained in the presence of test compounds. The IC50 values (concentration of competing ligand required for 50% inhibition of [^3H]DAMGO binding), and Hill coefficients (nH) were determined by non-linear regression analysis of competition curves using Hill equation curve fitting.

T1 sequence (P35372 whole entry): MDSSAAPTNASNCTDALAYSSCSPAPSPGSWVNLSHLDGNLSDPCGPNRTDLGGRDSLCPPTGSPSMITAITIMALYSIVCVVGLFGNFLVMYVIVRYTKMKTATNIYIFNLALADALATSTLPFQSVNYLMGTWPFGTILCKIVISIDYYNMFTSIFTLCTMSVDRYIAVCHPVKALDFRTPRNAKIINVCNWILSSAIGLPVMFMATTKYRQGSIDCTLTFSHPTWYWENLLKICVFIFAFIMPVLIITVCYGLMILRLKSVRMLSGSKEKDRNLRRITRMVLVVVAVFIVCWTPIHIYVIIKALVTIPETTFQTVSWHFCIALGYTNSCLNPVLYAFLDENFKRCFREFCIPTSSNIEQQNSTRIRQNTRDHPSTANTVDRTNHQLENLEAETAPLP

CC[C@@H](c1cccc(OC(=O)N(C)CCNC(=O)[C@H](CCCNC(=N)N)NC(=O)CC(=O)O)c1)[C@@H](C)CN(C)C [Compound TP-1, N—[(S)-1-(2-{[3-((1R,2R)-3-dimethylamino-1-ethyl-2-methyl-propyl)-phenoxycarbonyl]-methyl-amino}-ethylcarbamoyl)-4-guanidino-butyl]-malonamic acid]
plasma concentrations of tapentadol versus prodrug dose ([1]; 5 to 50 mg/kg): increase proportionally
tapentadol plasma concentration profile compared to administration of tapentadol ([1]; approximately equimole amounts): suppressed Cmax and delayed Tmax
tapentadol PK profile compared to administration of tapentadol [2]: delayed Tmax and increased AUC
conversion to tapentadol ([3]; all other conditions (household chemicals at RT or 80° C., enzyme preparations at RT, 1 or 24 hr)): less than 10%
conversion to tapentadol ([3]; sodium bicarbonate at 80° C. or Windex at 80° C. for 24 hr): 10-20%
agonist response in the μ-opioid receptor functional assay [4]: weak response was seen at 100 μM
affinity for the μ-opioid receptor, fold less than that of tapentadol [5]: at least 200 fold
